Test results reported in patent US20240180900A1, “COMPOUNDS AND METHODS FOR THE TARGETED DEGRADATION OF ANDROGEN RECEPTOR” (Arvinas Operations, Inc., priority 2022, published 2024).
Entries after “also recorded” stand apart in the source; their conditions may differ.

Assay: Phase 1/2 study in mCRPC participants: safety
[1] = all causality SAEs, Phases 1 and 2 combined, N = 47
[2] = all-causality TEAEs, Phase 1, N = 34

## COc1cc(O[C@H]2C(C)(C)[C@H](NC(=O)c3ccc(N4CCC(CN5CCN(c6ccc(C(=O)N[C@H]7CCC(=O)NC7=O)c(F)c6)CC5)CC4)cc3)C2(C)C)ccc1C#N [Compound A, 4-(4-((1-(4-(((1R,3R)-3-(4-cyano-3-methoxyphenoxy)-2,2,4,4-tetramethylcyclobutyl)carbamoyl)phenyl)piperidin-4-yl)methyl)piperazin-1-yl)-N—((S)-2,6-dioxopiperidin-3-yl)-2-fluorobenzamide]
Part A (Phase 1 dose escalation), 20 mg to 500 mg QD
  DLTs: No DLTs have been reported
Phase 1
  Grade 4 or 5 TRAEs: no Grade 4 or 5 TRAEs
  TRAE of Grade 3 aspartate aminotransferase increased: 1
  TRAE of Grade 3 fatigue: 1
  participants who discontinued study treatment due to a TEAE: No participant
  treatment discontinuation due to TRAE: no treatment discontinuation
Phase 1, of 34
  participants with treatment-emergent SAEs regardless of attribution: 11 participants
Phase 1/2, post-NHA mCRPC patients, 40 mg to 500 mg once daily
  tolerability: well-tolerated; also recorded: well tolerated
Phase 1 and Phase 2
  treatment-related SAEs: No treatment-related SAEs were reported
Phase 1 dose escalation and Phase 2 interim data
  grade of the majority of TRAEs: Grade 1/2
Phase 2
  SAEs: no SAEs were reported
  TRAE abdominal pain: 2 (15.4%) participants
  TRAE alopecia: 2 (15.4%) participants
  TRAE dysgeusia: 2 (15.4%) participants
  TRAE nausea: 2 (15.4%) participants
  TRAE of Grade 3 abdominal pain: 1
  dose reductions due to a TRAE: two
  treatment discontinuation due to a TRAE: one
Phase 2, Grade 3 abdominal pain, related
  participants who discontinued treatment due to a TEAE: One
Phases 1 and 2, of 47
  participants with TEAEs regardless of attribution: 44 participants
Phases 1 and 2 combined, of 47
  participants with TEAEs at least potentially related to Compound A: 25 participants
[1]
  Blood and lymphatic system disorders: Any Grade: 1 participants
  Blood and lymphatic system disorders: Grade 3: 0 participants
  Blood and lymphatic system disorders: Grade 4: 1 (2.1) participants
  Blood and lymphatic system disorders: Grade 5: 0 participants
  Brain stem stroke: Any Grade: 1 participants
  Brain stem stroke: Grade 3: 0 participants
  Brain stem stroke: Grade 4: 0 participants
  Cystitis noninfective: Any Grade: 1 participants
  Cystitis noninfective: Grade 3: 1 participants
  Cystitis noninfective: Grade 4: 0 participants
  Cystitis noninfective: Grade 5: 0 participants
  Diarrhoea: Any Grade: 1 participants
  Diarrhoea: Grade 3: 1 participants
  Diarrhoea: Grade 4: 0 participants
  Diarrhoea: Grade 5: 0 participants
  Dyspnoea: Any Grade: 1 participants
  Dyspnoea: Grade 3: 1 participants
  Dyspnoea: Grade 4: 0 participants
  Dyspnoea: Grade 5: 0 participants
  Febrile neutropenia: Any Grade: 1 participants
  Febrile neutropenia: Grade 3: 0 participants
  Febrile neutropenia: Grade 5: 0 participants
  Gastrointestinal disorders: Any Grade: 1 participants
  Gastrointestinal disorders: Grade 3: 1 participants
  Gastrointestinal disorders: Grade 4: 0 participants
  Gastrointestinal disorders: Grade 5: 0 participants
  Grade 2 lethargy (SAE): one
  Haematuria: Any Grade: 1 participants
  Haematuria: Grade 3: 1 participants
  Haematuria: Grade 4: 0 participants
  Haematuria: Grade 5: 0 participants
  Hypoxia: Any Grade: 1 participants
  Hypoxia: Grade 3: 1 participants
  Hypoxia: Grade 4: 0 participants
  Hypoxia: Grade 5: 0 participants
  Infections and infestations: Any Grade: 2 participants
  Infections and infestations: Grade 3: 2 participants
  Infections and infestations: Grade 4: 0 participants
  Infections and infestations: Grade 5: 0 participants
  Lethargy: Any Grade: 1 participants
  Lethargy: Grade 3: 0 participants
  Lethargy: Grade 4: 0 participants
  Lethargy: Grade 5: 0 participants
  Nervous system disorders: Any Grade: 4 participants
  Nervous system disorders: Grade 3: 2 participants
  Nervous system disorders: Grade 4: 0 participants
  Nervous system disorders: Grade 5: 1 (2.1) participants
  Participants with any serious TEAEs: Any Grade: 11 participants
  Participants with any serious TEAEs: Grade 3: 8 participants
  Participants with any serious TEAEs: Grade 4: 1 (2.1) participants
  Participants with any serious TEAEs: Grade 5: 1 (2.1) participants
  Pneumonia: Any Grade: 1 participants
  Pneumonia: Grade 3: 1 participants
  Pneumonia: Grade 4: 0 participants
  Pneumonia: Grade 5: 0 participants
  Renal and urinary disorders: Any Grade: 3 participants
  Renal and urinary disorders: Grade 3: 3 participants
  Renal and urinary disorders: Grade 4: 0 participants
  Renal and urinary disorders: Grade 5: 0 participants
  Respiratory, thoracic and mediastinal disorders: Any Grade: 2 participants
  Respiratory, thoracic and mediastinal disorders: Grade 3: 2 participants
  Respiratory, thoracic and mediastinal disorders: Grade 4: 0 participants
  Respiratory, thoracic and mediastinal disorders: Grade 5: 0 participants
  Soft tissue infection: Any Grade: 1 participants
  Soft tissue infection: Grade 3: 1 participants
  Soft tissue infection: Grade 4: 0 participants
  Soft tissue infection: Grade 5: 0 participants
  Spinal cord compression: Any Grade: 1 participants
  Spinal cord compression: Grade 3: 1 participants
  Spinal cord compression: Grade 4: 0 participants
  Spinal cord compression: Grade 5: 0 participants
  Tremor: Any Grade: 1 participants
  Tremor: Grade 3: 1 participants
  Tremor: Grade 4: 0 participants
  Tremor: Grade 5: 0 participants
  Urinary tract obstruction: Any Grade: 1 participants
  Urinary tract obstruction: Grade 3: 1 participants
  Urinary tract obstruction: Grade 4: 0 participants
  Urinary tract obstruction: Grade 5: 0 participants
[2]
  Alopecia: Any Grade: 4 participants
  Alopecia: Grade 3: 0 participants
  Alopecia: Grade 4: 0 participants
  Alopecia: Grade 5: 0 participants
  Anaemia: Any Grade: 6 participants
  Anaemia: Grade 3: 0 participants
  Anaemia: Grade 4: 0 participants
  Anaemia: Grade 5: 0 participants
  Aspartate aminotransferase increased: Any Grade: 5 participants
  Aspartate aminotransferase increased: Grade 3: 1 participants
  Aspartate aminotransferase increased: Grade 4: 0 participants
  Aspartate aminotransferase increased: Grade 5: 0 participants
  Blood alkaline phosphatase increased: Any Grade: 8 participants
  Blood alkaline phosphatase increased: Grade 3: 0 participants
  Blood alkaline phosphatase increased: Grade 4: 0 participants
  Blood alkaline phosphatase increased: Grade 5: 0 participants
  Blood and lymphatic system disorders: Any Grade: 7 participants
  Blood and lymphatic system disorders: Grade 3: 0 participants
  Blood and lymphatic system disorders: Grade 4: 1 participants
  Blood and lymphatic system disorders: Grade 5: 0 participants
  Blood creatinine increased: Any Grade: 7 participants
  Blood creatinine increased: Grade 3: 0 participants
  Blood creatinine increased: Grade 4: 0 participants
  Blood creatinine increased: Grade 5: 0 participants
  Constipation: Any Grade: 4 participants
  Constipation: Grade 3: 0 participants
  Constipation: Grade 4: 0 participants
  Constipation: Grade 5: 0 participants
  Cough: Any Grade: 4 participants
  Cough: Grade 3: 0 participants
  Cough: Grade 4: 0 participants
  Cough: Grade 5: 0 participants
  Decreased appetite: Any Grade: 5 participants
  Decreased appetite: Grade 3: 0 participants
  Decreased appetite: Grade 4: 0 participants
  Decreased appetite: Grade 5: 0 participants
  Diarrhoea: Any Grade: 7 participants
  Diarrhoea: Grade 3: 2 participants
  Diarrhoea: Grade 4: 0 participants
  Diarrhoea: Grade 5: 0 participants
  Dyspnoea: Any Grade: 4 participants
  Dyspnoea: Grade 3: 1 participants
  Dyspnoea: Grade 4: 0 participants
  Dyspnoea: Grade 5: 0 participants
  Fatigue: Any Grade: 12 participants
  Fatigue: Grade 3: 1 participants
  Fatigue: Grade 4: 0 participants
